We go through four compounds from paper PMC3128934, “Substrate Pathways and Mechanisms of Inhibition in the Sulfur Oxygenase Reductase of Acidianus Ambivalens” (Frontiers in Microbiology, 2011).

Assay [1] deals with sulfur oxygenase reductase (SOR). More on the design: method as in Kletzin, [1989]. Conditions: ref Kletzin, [1989], cited from earlier work; for residual activity for the oxidized reaction products: 0.1 mM inhibitor; for oxygenase activity remaining: 1 mM inhibitor.
Assay [2] has as its target sulfur oxygenase reductase (SOR) H277A mutant (Acidianus ambivalens, UniProt P29082, H277A). The assay can be described thus: biochemical. The conditions noted are these: for Ki: Ki-value (half-maximal inhibitory concentration), H277A mutant. As to the method:
(§1) Specific activities of the wild type and mutant proteins were determined by incubation of 2–5 μg of purified enzyme/ml of Tris–HCl buffer pH 7.2 containing 2% sulfur and 0.1% of Tween 20 as described previously (Kletzin, [1989]; Urich et al., [2004], [2005b]). Samples were taken at appropriate time points (usually after 0, 2, 4, 6, 8, and 10 min) and the concentration of the products was determined colorimetrically. Specific activities were calculated from the linear increase of product concentrations (Kletzin, [1989]). At least two activity measurements were performed for each mutant using independently purified protein preparations (see below, Table 2). Iron quantification was performed with pure protein preparations using the 2,4,6-tripyridyl-1,3,5-triazine method (TPTZ; Fischer and Price, [1964]). Protein concentrations were determined by the Coomassie Blue method (Bradford, [1976]) or using the BCA Protein Assay Kit (Novagen/Merck, Darmstadt, Germany) according to the manufacturer's instructions. Samples of purified proteins were separated by SDS-PAGE (Schägger and von Jagow, [1987]) and visualized with colloidal Coomassie Blue staining (Roti-Blue; Roth, Karlsruhe, Germany).
(§2) Zinc inhibition assays of the wild type and mutant proteins were performed by addition of a freshly prepared zinc chloride solution to the reaction buffer in concentrations ranging from 0.01 to 1 mM (Kletzin, [1989]). After addition of the enzyme, the mixture was incubated for 30 min at room temperature before starting the reaction by heating to 85°C and measurement of the specific activities. A zinc/buffer mixture without protein was used as a negative control.

For assay [3], the target named is sulfur oxygenase reductase (SOR) wild type (Acidianus ambivalens, UniProt P29082). The assay can be described thus: biochemical. The conditions noted are these: Ki-value (half-maximal inhibitory concentration), wild type enzyme, 30 min preincubation at room temperature, reaction at 85°C. How it is done:
as §1, §2

Assay [4] addresses sulfur oxygenase reductase (SOR) H166A mutant (Acidianus ambivalens, UniProt P29082, H166A). As to the kind of experiment: biochemical. The conditions noted are these: for Ki: Ki-value (half-maximal inhibitory concentration), H166A mutant. How it is done: as §1, §2

sulfur oxygenase reductase (SOR) H166A mutant, sequence (P29082 whole entry H166A): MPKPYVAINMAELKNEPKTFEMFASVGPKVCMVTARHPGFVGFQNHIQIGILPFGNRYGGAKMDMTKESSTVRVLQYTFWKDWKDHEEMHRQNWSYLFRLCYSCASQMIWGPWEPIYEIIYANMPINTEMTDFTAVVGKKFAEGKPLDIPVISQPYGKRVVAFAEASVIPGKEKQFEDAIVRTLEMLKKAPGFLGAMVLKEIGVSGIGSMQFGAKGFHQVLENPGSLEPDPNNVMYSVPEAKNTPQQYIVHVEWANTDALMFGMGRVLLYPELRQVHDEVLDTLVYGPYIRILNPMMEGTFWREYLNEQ
sulfur oxygenase reductase (SOR) H277A mutant, sequence (P29082 whole entry H277A): as the sequence (P29082 whole entry H166A) above, with A166H, H277A counted along it
sulfur oxygenase reductase (SOR) wild type, sequence (P29082 whole entry): as the sequence (P29082 whole entry H166A) above, with A166H counted along it

`[Hg+2]` [Hg^2+]: the “residual activity for the oxidized reaction products” value in assay [1] was 37%.
`NC(=O)CI` [IAA, iodoacetamide]: the oxygenase activity remaining in assay [1] is on record as 27%.
For `CCN1C(=O)C=CC1=O` [NEM, N-ethylmaleimide], the oxygenase activity remaining in assay [1] was 47%.
For `[Zn+2]` [zinc chloride], in assay [1], the “residual activity for the oxidized reaction products” value is 74%. Also, the “Increase of Ki-value compared to the wild type” value in assay [2] (H277A mutant vs wild type) and in assay [4] (H166A mutant vs wild type) was “two- to threefold” each time. Further, the Ki in assay [2] (oxygenase activity) came out at 157 µM; in assay [2] (reductase activity), 144 µM; in assay [3] (oxygenase activity), 45 µM; in assay [3] (reductase activity) it was 39 µM; in assay [4] (oxygenase activity), 121 µM; in assay [4] (reductase activity), 150 µM.

As usually defined, the Ki is the dissociation constant of the complex between target and ligand, obtained from inhibition or displacement.
